Source: PMC7848139, “Novel Hybrid CHC from β-carboline and N-Hydroxyacrylamide Overcomes Drug-Resistant Hepatocellular Carcinoma by Promoting Apoptosis, DNA Damage, and Cell Cycle Arrest” (Frontiers in Pharmacology, 2021)

How the values were obtained:
LO2 cells = test: MTT assay on normal liver LO2 cells; type: cell-based, human; settings: increasing dosages, 72 h
Procedure: Human cancer cell lines (SMMC-7721, Bel7402, Huh7, HCT116), drug-resistant cell lines (Bel7402/5-FU), and human normal hepatocyte cells (LO2) were purchased from Institute of Cell Biology (Shanghai, China).
(§1) Briefly, appropriate cells (1 × 10^4 cells/mL) were placed into 96-well plates in 100 μL of DMEM medium overnight. Then adding 100 μL of evaluated compounds into individual well for 72 h while 0.1% DMSO aqueous solution was treated as the negative control. After incubation with 30 μl MTT (5 mg/mL) for 4 h in all well, and ELISA plate reader measured absorbance of each well at 570 nm. Then calculating cytotoxicity effect of evaluated compounds through the formula: Cell inhibitory percentage (%) = (1−OD of treatment group/OD of control) × 100%. GraphPadPrism (4.03) calculated data to afford Corresponding IC50 values.
FIGURE 3 Inhibition potency of CHC against the proliferation on Bel7402, Bel7402/5-FU, and LO2 cells. Cells were treated with CHC at the indicated concentrations for 72 h. MTT assays were performed to evaluate cell proliferation. The inhibition (%) rate (mean ± SD) were from three separate experiments.

[1] = system: cyclin B and CDK1 in Bel7402/5-FU cells; test: Western blotting of cyclin B and CDK1; type: cell-based, human; settings: 2.0 and 5.0 μM, 72 h, immunoblotting
Procedure: (§2) The HDAC, autophagy and apoptosis-related proteins were analyzed according to Western blotting assay. […]. And anti-Ac-histone H3, anti-Ac-histone H4, anti-Ac-α-tubulin, anti-Bax, anti-Bcl2, anti-H2AX (S139ph), anti-CDK1, anti-cyclin B, and anti-β-actin antibodies (Cell Signaling Technology, MA, United States) detected the target proteins after membranes were blocked with 5% fat-free milk. The peroxidase-conjugated secondary antibodies detected the bound antibodies for 1 h and visualized according to improved chemiluminescent reagent.
. Values (mean ± SD) were obtained from three separate experiments. *p < 0.01 vs. control.

recombinant human HDAC1 = biological target: T1, recombinant human HDAC1 (Homo sapiens, UniProt Q13547); test: HDAC fluorimetric assay, HDAC1; type: biochemical
T1 construct: purchased Enzo Life Sciences Inc
Procedure: The assay was conducted according to the HDAC1/3/6/8 assay kit (Enzo Life Sciences Inc.). Each different concentrations of evaluated compounds were, respectively, incubated with each HDAC1/3/6/8 at coupling of corresponding HDAC substrate (Boc-Lys (Ac)-AMC) at 37°C for 60 min. Then stopping the reaction under adding lysine developer.

[2] = system: H2AX (S139ph) in Bel7402/5-FU cells; test: Western blotting of DNA damage marker H2AX; type: cell-based, human; settings: 72 h
Procedure: as §2
[…]; (B) The relative expression levels of H2AX protein were quantitatively analyzed using an internal reference β-actin, and the data (mean ± SD) were from three separate experiments. *p < 0.01 vs. control.

SMMC-7721 = test: MTT antiproliferative assay, SMMC-7721; type: cell-based; settings: Homo sapiens, 72 h, mean ± SD of three experiments, read-out: In vitro antiproliferative activity (IC50) SMMC-7721
Procedure: as §1, with “100%.” for “100%. GraphPadPrism (4.03) calculated data to afford Corresponding IC50 values.”

Bel7402/5-FU cells = test: Cell apoptosis analysis by flow cytometry; type: cell-based, human; settings: 72 h
Procedure: Briefly, Bel7402/5-FU cells were cultured in DMEM at 37°C with 5% CO2 for 12 h. […] Then Bel7402/5-FU cells were collected and using APC-Annexin V and 7-AAD to stain these cells under the condition of 37°C for 15 min. Flow cytometry analysis (Calibur, BD, United States) decide the percentage of apoptotic cells according to APC signal (FL4) (excitation wavelength at 633 nm; emission wavelength at 660 nm) and 7-AAD staining signal (FL3) (excitation wavelength at 488 nm; emission wavelength at 647 nm). WinList 3D (7.1) analyzed the data and Excel 2016 plotted the histogram.
FIGURE 5 CHC causes apoptosis of Bel7402/5-FU cells. […] The data (mean ± SD, percentage of apoptotic cells) represent the average of three separate experiments. *p < 0.01 vs. control.

Bel7402/5-FU xenografts = test: In vivo tumor growth inhibition, Bel7402/5-FU xenograft; parameters: species or system BALB/c nude mice; settings: intraperitoneal daily, 21 days
Procedure: All animal experimental protocols were approved by the Animal Research and Care Committee of Nantong University. Female BALB/c nude mice at 5∼6 week-old were subcutaneously implanted with 1×10^6 Bel7402/5-FU cells. […] The body mass and tumor size of nude mice were surveyed every three days during the 21 days study. Tumor size (mm^3) of nude mice was determined using the formula: tumor size = ½ (Length×Width^2). Finally, these tumor-bearing mice were sacrificed, and their tumors were removed and weighed at the end of the 21 days.
Data (means ± SD) were from tumor volumes or weight of each group of mice (n = 6 per group). *p < 0.01 vs. control group.

CT-DNA = test: UV-visible spectroscopy titrations with CT DNA; type: binding, calf; settings: 20 μM compound, equal increments of CT-DNA, 25°C
Procedure: The ultraviolet spectrophotometer (UV2500, Shimadzu, Tokyo, Japan) recorded UV–visible spectroscopy under titrations at 25°C. Tris buffer (5 mM) was used to prepare Stock solutions of CT DNA (20 μM, calf thymus DNA) comprising ideal structure of double stranded DNA. Dissolving synthesized derivative in 1:1000 DMSO/Milli Q water to prepare stock solutions of them (20 μM). UV–visible absorption titrations were carried out with addition of 100 μl CT DNA solution to 4 ml solution of tested compound in quartz cuvette each time interval. Until the absorption band of complex containing synthesized derivative and CT DNA kept at a stable wavelength after adding CT DNA successfully for five times, titrations were finished. Finally, spectrophotometer noted the absorption spectra (250–500 nm).
FIGURE 7 UV-visible absorption spectra of CHC after adding equal amounts of CT DNA. Arrows indicate changes in absorbance with increasing concentrations of DNA [CHC] = 20 μM.

T1 sequence (Q13547 whole entry): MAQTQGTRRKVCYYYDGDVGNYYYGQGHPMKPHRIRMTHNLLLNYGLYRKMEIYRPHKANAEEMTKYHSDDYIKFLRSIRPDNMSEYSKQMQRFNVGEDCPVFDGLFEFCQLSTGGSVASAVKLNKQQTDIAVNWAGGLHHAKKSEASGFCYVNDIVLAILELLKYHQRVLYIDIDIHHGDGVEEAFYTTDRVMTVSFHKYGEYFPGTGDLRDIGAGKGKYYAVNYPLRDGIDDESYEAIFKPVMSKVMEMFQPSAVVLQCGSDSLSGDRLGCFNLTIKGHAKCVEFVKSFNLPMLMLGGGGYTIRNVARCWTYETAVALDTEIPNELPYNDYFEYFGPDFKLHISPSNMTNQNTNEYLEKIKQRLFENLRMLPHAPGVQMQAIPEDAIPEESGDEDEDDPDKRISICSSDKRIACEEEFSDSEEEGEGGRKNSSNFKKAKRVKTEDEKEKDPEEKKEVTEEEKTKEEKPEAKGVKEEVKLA

- IC50 on HDAC1 relative to SAHA (recombinant human HDAC1; compared with SAHA): approximately five-fold lower
- IC50 (recombinant human HDAC1; mean ± SD of three experiments): 29 ± 3 nM
- fold lower IC50 on HDAC1 than on HDAC3 (recombinant human HDAC1; selectivity HDAC1 over HDAC3): 4 fold
- IC50 (SMMC-7721): 3270 ± 360 nM
SMILES: CN(C)c1ccc(-c2nc(C(=O)NCc3ccc(/C=C/C(=O)NO)cc3)cc3c2[nH]c2ccccc23)cc1 [CHC, (E)-N-(4-(3-(hydroxyamino)-3-oxoprop-1-en-1-yl)benzyl)-1-(4-dimethylaminophenyl)-9H-pyrido [3,4-b]indole-3-carboxamide]
- cytotoxicity on normal liver LO2 cells growth (LO2 cells): minimal cytotoxicity effects
- expression of cyclin B and CDK1 [1]: downregulated the expression of cyclin B and CDK1
- expression of phosphorylated H2AX [2]: induced the expression of phosphorylated H2AX in Bel7402/5-FU cells in a dosage-dependent manner
- rate of Annexin V+ Bel7402/5-FU cellular apoptosis (Bel7402/5-FU cells; 2.0 μM): 42.3%
- rate of Annexin V+ Bel7402/5-FU cellular apoptosis (Bel7402/5-FU cells; 5.0 μM): 67.2%
- decrease of tumor mass compared to saline group (Bel7402/5-FU xenografts; 70 μmol/kg): 65 % (w/w)
- tumor mass at end of treatment (Bel7402/5-FU xenografts; 70 μmol/kg, n = 6, saline group 1.47 ± 0.21 g): 0.51 ± 0.08 g
- body mass change vs vehicle group (Bel7402/5-FU xenografts): no significant statistical difference
- xenograft hepatic tumor volume (Bel7402/5-FU xenografts): markedly diminished xenograft hepatic tumor volume
- change of UV-visible absorption upon adding CT-DNA (CT-DNA): absorption at all wavelengths gradually decreased
